What was measured:
Type in all cases: biochemical
USP24 = biological target: T1, USP24 (Homo sapiens, UniProt Q9UPU5); assay: High-throughput screening, Ub-RhoMP, single dose 1.25 µM; settings: for inhibition at 1.25 µM: individual amine building block (plate NCN-5), read-out: BB %inhibition USP24; for %inhibition USP24: crude in-plate synthesized compound, 1.25 µM assuming full conversion
T1 construct: (1-2620); His10; purchased Biotechne E-616
Procedure: (§1) Since the in‐plate synthesis was conducted in 1536‐well Echo plates, the compounds could readily be transferred from these plates into 1536‐well assay plates using acoustic liquid dispensing (Figure 2a) and subjected to HTS. We screened the whole 7536 compound library against a panel of twelve enzymes, including three DUBs from the UCH family, two DUBs from the OTU family, five DUBs from the USP family, plus ISG15 protease USP18, and SUMO protease SENP1. Each compound was tested at a single dose of 1.25 µM, assuming full conversion (10 mM in DMSO of the formed products) during the in‐plate synthesis, using the fluorogenic assay described above. […] The compounds are sorted by the amine building blocks (BB1‐16), and within each BB, sorted by carboxylic acid (CA1‐471), thereby providing a comprehensive and systematic overview of the overall inhibition by each BB and CA combination. Some interesting patterns can be obtained from this map. […] Indeed, BB10 is the privileged scaffold for UCHL1 as it originates from UCHL1 inhibitor 5 (Figure 1). […] On the other hand, OTUD1 and USP32 show a much higher hit rate, and this is even more pronounced for USP30 and ISG15 protease mUSP18, each showing many active compounds distributed over several BB's.
(§2) Purified recombinant enzymes used in this study
(§3) High-throughput screening
(§4) The screens were performed at room temperature in “flat bottom, non-treated, black […]
(§5) µM. The compounds (10 nL each) were transferred from the 1 mM daughter plates to the […]
(§6) Four wells containing DMSO
(§7) (10 nL) and four wells containing NEM (10 mM final concentration) were used in each plate […]
(§8) solution (1.33x final concentration) was added to each well, followed by incubation for 30 min.
(§9) Next, 2 µL of a substrate solution (4x final concentration) was added to each well (Ub-RhoMP[2]
(§10) After 1h or 2h incubation the
(§11) The percentage inhibition was calculated for each well using the […]
(§12) Where FIx is the fluorescence intensity of each well, FIpos is the average fluorescence intensity of the positive (NEM) control wells, and FIneg is the average fluorescence intensity of the negative (DMSO) control wells.

UCHL5 = biological target: T2, UCHL5 (Homo sapiens, UniProt Q9Y5K5); assay: as above; settings: for inhibition at 1.25 µM: individual amine building block (plate NCN-5), read-out: BB %inhibition UCHL5; for %inhibition UCHL5: crude in-plate synthesized compound, 1.25 µM assuming full conversion
T2 construct: (1-329); purchased Novus biochemicals NBP1-72315
T2 sequence (Q9Y5K5 1-329): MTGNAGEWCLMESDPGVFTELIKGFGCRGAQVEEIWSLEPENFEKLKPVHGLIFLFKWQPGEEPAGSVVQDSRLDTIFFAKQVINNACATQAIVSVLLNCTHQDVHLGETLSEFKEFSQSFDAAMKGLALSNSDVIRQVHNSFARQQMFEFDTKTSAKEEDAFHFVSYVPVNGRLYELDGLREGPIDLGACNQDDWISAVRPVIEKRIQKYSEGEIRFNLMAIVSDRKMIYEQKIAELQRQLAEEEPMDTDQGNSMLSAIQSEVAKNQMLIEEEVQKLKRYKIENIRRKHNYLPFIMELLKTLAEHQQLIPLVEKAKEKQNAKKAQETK
Procedure: as §1, §2, §3, §4, §5, §6, §7, §8, §9, §10, §11, §12

USP8 = biological target: T3, USP8 (Homo sapiens, UniProt P40818); assay: as above; settings: for BB %inhibition USP8: individual amine building block (plate NCN-5); for %inhibition USP8: crude in-plate synthesized compound, 1.25 µM assuming full conversion
T3 construct: (1-1118); purchased Ubiquigent 64-0053-050
T3 sequence (P40818 1-1118): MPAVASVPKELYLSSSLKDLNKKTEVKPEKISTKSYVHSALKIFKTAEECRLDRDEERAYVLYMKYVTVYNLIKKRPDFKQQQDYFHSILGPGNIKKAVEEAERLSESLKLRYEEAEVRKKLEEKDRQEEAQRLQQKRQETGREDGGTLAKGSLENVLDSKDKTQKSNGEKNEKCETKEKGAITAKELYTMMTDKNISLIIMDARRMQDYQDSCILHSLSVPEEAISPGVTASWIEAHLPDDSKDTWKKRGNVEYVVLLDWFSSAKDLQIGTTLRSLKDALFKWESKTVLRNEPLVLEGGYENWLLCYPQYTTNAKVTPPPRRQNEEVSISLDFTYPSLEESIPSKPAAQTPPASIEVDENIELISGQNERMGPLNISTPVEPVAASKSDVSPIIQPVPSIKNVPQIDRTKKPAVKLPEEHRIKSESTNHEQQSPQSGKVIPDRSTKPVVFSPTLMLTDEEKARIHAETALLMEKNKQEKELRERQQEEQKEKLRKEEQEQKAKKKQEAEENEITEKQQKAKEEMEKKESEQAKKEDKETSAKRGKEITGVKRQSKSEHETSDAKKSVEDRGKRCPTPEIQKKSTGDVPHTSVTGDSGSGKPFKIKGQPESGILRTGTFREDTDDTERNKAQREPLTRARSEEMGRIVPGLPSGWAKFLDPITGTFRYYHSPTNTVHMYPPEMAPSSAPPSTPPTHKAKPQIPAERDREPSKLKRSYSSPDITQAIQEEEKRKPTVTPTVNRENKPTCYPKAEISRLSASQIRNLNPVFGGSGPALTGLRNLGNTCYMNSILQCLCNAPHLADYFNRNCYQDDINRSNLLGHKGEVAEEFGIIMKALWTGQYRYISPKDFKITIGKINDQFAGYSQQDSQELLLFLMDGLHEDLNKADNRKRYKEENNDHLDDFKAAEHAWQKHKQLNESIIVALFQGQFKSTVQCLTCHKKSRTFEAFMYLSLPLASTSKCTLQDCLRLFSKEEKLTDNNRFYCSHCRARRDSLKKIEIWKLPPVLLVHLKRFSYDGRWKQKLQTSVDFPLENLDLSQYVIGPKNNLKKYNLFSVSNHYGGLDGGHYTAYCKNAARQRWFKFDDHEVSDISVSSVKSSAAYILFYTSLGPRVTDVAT
Procedure: as §1, §2, §3, §4, §5, §6, §7, §8, §9, §10, §11, §12

SENP1 = biological target: T4, SENP1 (Homo sapiens, UniProt Q9P0U3); assay: High-throughput screening, single dose 1.25 µM; settings: for inhibition at 1.25 µM: individual amine building block (plate NCN-5), read-out: BB %inhibition SENP1; for %inhibition SENP1: crude in-plate synthesized compound, 1.25 µM assuming full conversion
T4 sequence (Q9P0U3 419-644): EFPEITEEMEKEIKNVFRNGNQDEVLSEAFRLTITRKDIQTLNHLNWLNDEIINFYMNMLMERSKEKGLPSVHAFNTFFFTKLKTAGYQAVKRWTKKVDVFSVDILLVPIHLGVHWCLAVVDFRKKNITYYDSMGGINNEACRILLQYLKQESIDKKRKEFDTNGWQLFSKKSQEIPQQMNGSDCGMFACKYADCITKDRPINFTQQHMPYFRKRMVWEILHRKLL
Procedure: as §1, §2, §3, §4, §5, §6, §7, §8, §9, §10, §11, §12

T1 sequence (Q9UPU5 whole entry): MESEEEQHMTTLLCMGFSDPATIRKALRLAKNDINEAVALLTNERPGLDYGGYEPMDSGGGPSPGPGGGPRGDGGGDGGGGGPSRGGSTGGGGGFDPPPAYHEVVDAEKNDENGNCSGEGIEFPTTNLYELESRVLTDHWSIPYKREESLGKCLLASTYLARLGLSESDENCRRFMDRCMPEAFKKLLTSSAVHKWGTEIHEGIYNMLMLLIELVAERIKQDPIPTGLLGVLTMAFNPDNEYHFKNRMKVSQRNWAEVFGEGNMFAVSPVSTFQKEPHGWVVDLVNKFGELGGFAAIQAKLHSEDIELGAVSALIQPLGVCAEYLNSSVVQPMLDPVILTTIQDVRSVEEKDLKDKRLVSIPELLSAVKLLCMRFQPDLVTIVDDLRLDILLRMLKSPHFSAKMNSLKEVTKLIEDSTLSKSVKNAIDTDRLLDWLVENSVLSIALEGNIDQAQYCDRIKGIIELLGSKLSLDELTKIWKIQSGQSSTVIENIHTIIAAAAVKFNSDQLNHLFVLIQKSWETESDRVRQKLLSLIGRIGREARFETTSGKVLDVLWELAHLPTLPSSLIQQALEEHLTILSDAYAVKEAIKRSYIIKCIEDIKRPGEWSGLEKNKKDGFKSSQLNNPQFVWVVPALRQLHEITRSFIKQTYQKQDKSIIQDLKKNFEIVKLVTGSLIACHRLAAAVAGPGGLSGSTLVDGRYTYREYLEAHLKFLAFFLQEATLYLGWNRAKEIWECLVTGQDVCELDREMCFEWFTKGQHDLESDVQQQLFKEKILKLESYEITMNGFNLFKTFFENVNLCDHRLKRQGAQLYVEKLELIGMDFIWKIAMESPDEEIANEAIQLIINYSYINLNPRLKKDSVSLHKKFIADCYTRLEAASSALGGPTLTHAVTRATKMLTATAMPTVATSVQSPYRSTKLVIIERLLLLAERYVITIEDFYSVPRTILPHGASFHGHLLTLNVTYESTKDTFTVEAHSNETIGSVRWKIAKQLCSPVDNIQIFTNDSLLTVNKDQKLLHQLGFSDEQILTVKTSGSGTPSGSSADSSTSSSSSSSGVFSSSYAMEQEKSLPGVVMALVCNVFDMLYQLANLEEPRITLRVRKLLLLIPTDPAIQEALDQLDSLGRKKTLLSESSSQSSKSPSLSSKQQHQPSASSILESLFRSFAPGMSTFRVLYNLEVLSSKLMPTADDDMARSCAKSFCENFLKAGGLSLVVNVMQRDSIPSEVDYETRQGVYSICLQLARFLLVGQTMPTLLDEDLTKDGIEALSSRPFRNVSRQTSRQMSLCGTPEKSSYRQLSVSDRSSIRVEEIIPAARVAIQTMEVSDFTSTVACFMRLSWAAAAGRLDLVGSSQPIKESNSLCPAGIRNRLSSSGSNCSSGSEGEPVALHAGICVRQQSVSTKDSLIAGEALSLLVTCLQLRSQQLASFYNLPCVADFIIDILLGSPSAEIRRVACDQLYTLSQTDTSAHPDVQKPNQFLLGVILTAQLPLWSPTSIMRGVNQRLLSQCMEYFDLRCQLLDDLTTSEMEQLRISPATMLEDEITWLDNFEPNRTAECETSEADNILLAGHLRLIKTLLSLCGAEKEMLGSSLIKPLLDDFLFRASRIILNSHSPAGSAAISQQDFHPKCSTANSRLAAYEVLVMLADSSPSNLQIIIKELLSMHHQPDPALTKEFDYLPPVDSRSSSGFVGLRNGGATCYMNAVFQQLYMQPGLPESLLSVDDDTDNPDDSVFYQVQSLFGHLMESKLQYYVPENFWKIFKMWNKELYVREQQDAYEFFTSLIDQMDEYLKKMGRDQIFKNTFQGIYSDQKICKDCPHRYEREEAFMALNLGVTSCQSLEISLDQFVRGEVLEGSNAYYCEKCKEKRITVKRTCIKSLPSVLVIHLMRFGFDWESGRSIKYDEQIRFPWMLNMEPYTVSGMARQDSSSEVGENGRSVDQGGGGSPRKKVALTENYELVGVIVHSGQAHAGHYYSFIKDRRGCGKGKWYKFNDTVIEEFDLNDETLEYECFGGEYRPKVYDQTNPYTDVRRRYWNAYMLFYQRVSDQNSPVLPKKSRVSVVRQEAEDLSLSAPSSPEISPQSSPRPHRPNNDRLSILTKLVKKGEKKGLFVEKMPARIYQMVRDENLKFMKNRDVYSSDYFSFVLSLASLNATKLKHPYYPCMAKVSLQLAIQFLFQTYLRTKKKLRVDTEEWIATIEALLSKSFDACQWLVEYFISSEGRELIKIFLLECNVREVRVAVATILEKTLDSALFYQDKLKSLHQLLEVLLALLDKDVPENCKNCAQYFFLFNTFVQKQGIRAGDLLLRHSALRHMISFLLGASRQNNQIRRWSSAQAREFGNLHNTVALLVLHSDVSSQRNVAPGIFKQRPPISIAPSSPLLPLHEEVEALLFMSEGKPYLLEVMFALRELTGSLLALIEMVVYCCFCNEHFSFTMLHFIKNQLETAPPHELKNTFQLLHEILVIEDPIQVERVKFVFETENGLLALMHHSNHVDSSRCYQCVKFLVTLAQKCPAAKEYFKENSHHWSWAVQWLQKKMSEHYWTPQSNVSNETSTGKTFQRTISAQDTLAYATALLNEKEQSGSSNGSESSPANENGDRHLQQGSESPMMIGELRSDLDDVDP

Row | Structure (SMILES) | inhibition at 1.25 µM (USP24) [%] | inhibition at 1.25 µM (UCHL5) [%] | BB %inhibition USP8 (USP8) [%] | inhibition at 1.25 µM (SENP1) [%] | %inhibition USP24 (USP24) [%] | %inhibition UCHL5 (UCHL5) [%] | %inhibition USP8 (USP8) [%] | %inhibition SENP1 (SENP1) [%]
1 | N#CN1CC[C@H](C(=O)Nc2nc3c(s2)CNCC3)C1 [BB10] | -1.8 | -11 | 0.105 | -5.4 |  |  |  | 
2 | N#CN1C[C@H]2C[C@H](N)C[C@H]2C1 [BB7] | -3.9 | -1.4 | -1.7 | -11.7 |  |  |  | 
3 | N#CN1CCC2(CCNC2)C1 (stereo not drawn) [BB14] | 3.8 | -1.4 | 7.8 | 8.7 |  |  |  | 
4 | N#CN1CC[C@@H](NC(=O)CCN(Cc2ccccc2)S(=O)(=O)c2c(Cl)cccc2Cl)C1 [BB01CA93] |  |  |  |  | 9.1 | 5.2 | 33.0 | 8.6
5 | N#CN1CCC(N)CC1 [BB2] | 5.5 | -3.3 | 1.0 | -2.9 |  |  |  | 
6 | N#CN1CCC(n2cc(N)cn2)CC1 [BB16] | 9.2 | -7.7 | -3.5 | 4 |  |  |  | 
7 | N#CN1CC[C@@H](N)C1 [BB1] | 6.1 | -4.7 | 9.1 | 1.3 |  |  |  | 
8 | N#CN1CC[C@@H](NC(=O)c2ncoc2-c2cccs2)C1 [BB01CA94] |  |  |  |  | -1.8 | 4.4 | 24.1 | 8.5
9 | N#CN1CCC[C@@H](N)C1 [BB4] | 0.8 | -6.7 | 5.3 | -2.1 |  |  |  | 
10 | N#CN1CC[C@@H](NC(=O)c2ccc(CN)cc2)C1 [BB9] | 0.33 | -9.9 | 20.0 | -5 |  |  |  | 
11 | N#CN1CC[C@@H](NC(=O)c2nc(N3CCCC3)ncc2Cl)C1 [BB01CA90] |  |  |  |  | 0.9 | 6.9 | 29.2 | 16.6
12 | N#CN1C[C@@H]2C[C@H]1CN2 [BB12] | -3.7 | -5.3 | -2.5 | -9.2 |  |  |  | 
13 | N#CN1CC[C@@H](NC(=O)Cc2csc(-c3cnccn3)n2)C1 [BB01CA92] |  |  |  |  | 3.2 | 6.2 | 32.5 | 12.8
14 | N#CN1CCC[C@H](N)C1 [BB8] | -0.279 | 4.6 | 1.5 | 0.5 |  |  |  | 
15 | N#CN1C[C@H](N)[C@@H](O)C1 [BB13] | 5.7 | 0.225 | 0.0 | 10.1 |  |  |  | 
16 | N#CN1CC[C@@H](NC(=O)C(Cc2c[nH]cn2)NS(=O)(=O)c2ccc(Cl)cc2)C1 (stereo partly drawn) [BB01CA91] |  |  |  |  | -0.9 | 8.4 | 28.4 | 13.2
17 | N#CN1CC[C@H](CN)C1 [BB11] | -6.5 | -7.1 | -2.4 | -12.3 |  |  |  | 
18 | N#CN1CC[C@H](N)C1 [BB3] | -1.4 | -5.8 | 3.6 | -1 |  |  |  | 
19 | N#CN1CC(N)C1 [BB5] | 5 | 2.9 | 1.7 | -5.2 |  |  |  | 
20 | N#CN1C[C@H]2C[C@@H](N)C[C@H]2C1 [BB6] | 3.1 | 2.5 | -1.3 | -9 |  |  |  | 
21 | N#CN1C[C@@H](F)[C@@H](N)C1 [BB15] | 5.6 | -6 | 2.7 | 0.022 |  |  |  | 

Reference: article PMC12668310, “High‐Throughput Synthesis and Screening of a Cyanimide Library Identifies Selective Inhibitors of ISG15‐Specific Protease mUSP18” (Angewandte Chemie (International Ed. in English), 2025)
